Reference: patent US5677292A, “Derivatives of estra 1,3,5(10)triene-17-one,3-amino compounds and their use” (Duquesne University of the Holy Ghost, priority 1996, dated 1997)
Entries after “also recorded” stand apart in the source; their conditions may differ.

Legend:
[1] = system: uterine weight of ovariectomized rats; assay: Ovariectomized rat uterine weight gain assay: estrogenicity; conditions: for Estrogenicity: increase in uterine weight of ovariectomized rats compared with control / Uterine weight compared with other groups (control and E1 -NH2): 25 μg/day, i.p., seven days; for Estrogenicity: increase in uterine weight of ovariectomized rats compared with control: n=5; for Uterine weight compared with other groups (control and E1 -NH2): Student-Newman-Keuls test
Method: Estrogenicity and antiestrogenicity were assessed using an ovariectomized rat uterine weight gain assay. […] Ovariectomized rats were maintained two weeks prior to treatment to allow their uteri to regress to basal size. Treatments were given by intraperitoneal injection in a 1% gelatin, 0.9% NaCl solution at a volume of 0.5 ml. Steroids were dissolved in ethanol to 1 mg/ml then further diluted into the injection solution to the desired concentration. All treatments were continued for seven days. At the termination of the experiments, animals were sacrificed by cervical dislocation under ether anesthesia. Body weight was taken, then uteri were excised, stripped of fat, and weighed to the nearest 0.1 mg.
(§1) Steroids were administered at 25 μg/day. For determination of antiestrogenicity, three treatment groups were established: vehicle control, estrone, and estrone E1 NH2.
A rat uterine weight gain assay was used to determine if E1 -NH2 had estrogenic or anti-estrogenic activity. […] Data are means ±SEM, n=5 for all groups. Control animals received vehicle only (0.9% NaCl, 1% gelatin, 500 μl,i.p. injection).

[2] = system: estrone-induced uterine weight gain in ovariectomized rats; assay: Ovariectomized rat uterine weight gain assay: anti-estrogenicity (block of estrone-induced uterine weight gain); format: in vivo
Method: Estrogenicity and antiestrogenicity were assessed using an ovariectomized rat uterine weight gain assay. […] Ovariectomized rats were maintained two weeks prior to treatment to allow their uteri to regress to basal size. Treatments were given by intraperitoneal injection in a 1% gelatin, 0.9% NaCl solution at a volume of 0.5 ml. Steroids were dissolved in ethanol to 1 mg/ml then further diluted into the injection solution to the desired concentration. All treatments were continued for seven days. At the termination of the experiments, animals were sacrificed by cervical dislocation under ether anesthesia. Body weight was taken, then uteri were excised, stripped of fat, and weighed to the nearest 0.1 mg. In vivo, estradiol and estrone can induce uterine weight gain in female ovariectomized rats.
as §1
Antiestrogenicity was assessed as the ability of the compound to block estrone-induced uterine weight gain in ovariectomized rats. […] Control animals received vehicle only (0.9% NaCl, 1% gelatin, 500 μl. i.p. injection).

[3] = molecular target: T1, rat uterine estrogen receptor (Rattus norvegicus, UniProt P06211); assay: Estrogen receptor binding, displacement of 3H-estradiol in rat uterine cytosol
T1 sequence (P06211 1-600): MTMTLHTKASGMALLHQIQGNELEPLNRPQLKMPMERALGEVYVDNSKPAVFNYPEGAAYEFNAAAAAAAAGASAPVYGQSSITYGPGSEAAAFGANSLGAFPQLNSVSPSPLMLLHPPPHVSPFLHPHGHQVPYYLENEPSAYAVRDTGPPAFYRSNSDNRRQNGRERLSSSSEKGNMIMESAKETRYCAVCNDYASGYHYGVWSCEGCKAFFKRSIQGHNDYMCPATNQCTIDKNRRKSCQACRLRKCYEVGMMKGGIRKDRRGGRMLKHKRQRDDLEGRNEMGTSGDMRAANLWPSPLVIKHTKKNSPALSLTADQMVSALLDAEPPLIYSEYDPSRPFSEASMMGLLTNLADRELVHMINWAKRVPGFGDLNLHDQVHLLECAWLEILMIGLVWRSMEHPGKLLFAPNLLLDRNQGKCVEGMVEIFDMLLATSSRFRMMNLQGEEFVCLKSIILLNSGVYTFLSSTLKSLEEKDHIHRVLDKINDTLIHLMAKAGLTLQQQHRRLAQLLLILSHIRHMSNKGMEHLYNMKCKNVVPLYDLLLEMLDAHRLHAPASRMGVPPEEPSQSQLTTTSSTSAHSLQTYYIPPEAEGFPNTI
Method: Specific binding was calculated as total binding minus nonspecific binding.

[4] = system: nitrosomethyl urea-induced tumor cells in castrated rats; conditions: cited from earlier work

Which “Estrogenicity: increase in uterine weight of ovariectomized rats compared with control” value [1] does the source give for C[C@]12CC[C@@H]3c4ccc(N)cc4CC[C@H]3[C@@H]1CCC2=O [E1 -NH2, estra-1,3,5(10)-triene-17-one, 3-amine] here?
The value was “did not cause a significant increase in uterine weight”.

What about the “Estrogenicity (conclusion)” value ([1]; FIGS. 4 and 5) of the same molecule?
The value was “neither estrogenic nor anti-estrogenic”.

And the “Anti-estrogenicity: block of estrone-induced uterine growth” value ([2]; E1 -NH2 100 μg/day with estrone 2 μg/day, i.p., seven days, n=5)?
The value was “did not block estrone-induced uterine growth”.

And the “Anti-estrogenicity (conclusion)” value ([2]; FIGS. 4 and 5)?
Its value is “neither estrogenic nor anti-estrogenic”.

And the “Competition for / interaction with estrogen receptor” value ([3]; rat uterine cytosol, 0.01, 0.1 and 1 μM competitor)?
The value was “did not compete for estrogen receptor at the same level as estrone; also recorded: does not interact to any great extent with an estrogen receptor”.

And the inhibition at 1 µM ([3]; read-out: Displacement of specific 3H-estradiol binding)?
Its inhibition at 1 µM is 60%.

With estrone sulfate as the molecule, how does the “Stimulation of tumor cell growth” value [4] read?
The value was “stimulate growth of nitrosomethyl urea-induced tumor cells in castrated rats”.

Which “Estrogenicity: increase in uterine weight of ovariectomized rats compared with control” value [1] does the source give for C[C@]12CC[C@@H]3c4ccc(O)cc4CC[C@H]3[C@@H]1CCC2=O [estrone] here?
Its value is “significantly increased uterine weight above control levels”.

What about the “Uterine weight compared with other groups (control and E1 -NH2)” value [1] of the same molecule?
The value was “significantly (p≤0.05) higher than other groups”.

Which results are given for C[C@]12CC[C@@H]3c4ccc(O)cc4CC[C@H]3[C@@H]1CC[C@@H]2O [estradiol, estradiol-17β]?
Estrogenicity: increase in uterine weight of ovariectomized rats compared with control [1]: significantly increased uterine weight above control levels; Uterine weight compared with other groups (control and E1 -NH2) [1]: significantly (p≤0.05) higher than other groups
